Assay results: ChEMBL document CHEMBL3046919, “Synthesis and herbicidal activity of substituted pyrazole isothiocyanates” (Molecules, 2012)
Values after ≈ are worked out from the molar mass of the structure shown.

Legend:
[1] = tested on: Trifolium repens; experiment: Herbicidal activity against Trifolium repens measured after 14 days relative to control; type: functional, organism-based; conditions: for EC50: 336 h
[2] = tested on: Dactylis glomerata; experiment: Herbicidal activity against Dactylis glomerata measured after 14 days relative to control; type: functional, organism-based; conditions: for EC50: 336 h
[3] = tested on: Cyperus iria; experiment: Herbicidal activity against Cyperus iria measured after 14 days relative to control; type: functional, organism-based; conditions: for EC50: 336 h
[4] = tested on: Echinochloa crus-galli; experiment: Herbicidal activity against Echinochloa crus-galli (barnyard grass) measured after 14 days relative to control; type: functional, organism-based; conditions: for EC50: 336 h
[5] = tested on: Trifolium repens; experiment: Herbicidal activity against Trifolium repens at 75 g a.i./ha measured after 14 days relative to control; type: functional
[6] = tested on: Dactylis glomerata; experiment: Herbicidal activity against Dactylis glomerata at 75 g a.i./ha measured after 14 days relative to control; type: functional
[7] = tested on: Cyperus iria; experiment: Herbicidal activity against Cyperus iria at 75 g a.i./ha measured after 14 days relative to control; type: functional
[8] = tested on: Echinochloa crus-galli; experiment: Herbicidal activity against Echinochloa crus-galli (barnyard grass) at 75 g a.i./ha measured after 14 days relative to control; type: functional
[9] = tested on: Trifolium repens; experiment: Herbicidal activity against Trifolium repens at 15 g a.i./ha measured after 14 days relative to control; type: functional
[10] = tested on: Dactylis glomerata; experiment: Herbicidal activity against Dactylis glomerata at 15 g a.i./ha measured after 14 days relative to control; type: functional
[11] = tested on: Cyperus iria; experiment: Herbicidal activity against Cyperus iria at 15 g a.i./ha measured after 14 days relative to control; type: functional
[12] = tested on: Echinochloa crus-galli; experiment: Herbicidal activity against Echinochloa crus-galli (barnyard grass) at 15 g a.i./ha measured after 14 days relative to control; type: functional

N#Cc1c(SCc2ccccc2)nn(-c2ccccc2)c1NCCCN=C=S
Activity [1]: Dose-dependent effect | EC50 [1]: 67.7 µg/mL (≈ 167 µM) | Activity [2]: Dose-dependent effect | EC50 [2]: 62.4 µg/mL (≈ 154 µM) | Activity [3]: Dose-dependent effect | EC50 [3]: 65.8 µg/mL (≈ 162 µM) | Activity [4]: Dose-dependent effect | EC50 [4]: 64.3 µg/mL (≈ 159 µM) | Activity [5]: 75.57% | Activity [6]: 79.26% | Activity [7]: 86.53% | Activity [8]: 79.39%

CCOC(=O)c1c(SCc2ccccc2)nn(C)c1NCCCN=C=S
Activity [5]: 45.12% | Activity [6]: 46.53% | Activity [7]: 55.36% | Activity [8]: 63.32%

CCOC(=O)c1c(SC)nn(-c2ccccc2)c1NCCCN=C=S
Activity [5]: 60.68% | Activity [6]: 59.08% | Activity [7]: 60.23% | Activity [8]: 58.93%

C=CCN=C=S [ALLYL ISOTHIOCYANATE]
Activity [5]: 13.33% | Activity [6]: 40.12% | Activity [7]: 32.59% | Activity [8]: 25.86%

CCOC(=O)c1c(SC)nn(C)c1NCCCN=C=S
Activity [5]: 62.39% | Activity [6]: 56.25% | Activity [7]: 58.96% | Activity [8]: 52.32%

CCOC(=O)c1ccccc1S(=O)(=O)NC(=O)Nc1nc(Cl)cc(OC)n1 [CHLORIMURON ETHYL]
EC50 [1]: 9.98 µg/mL (≈ 24.1 µM) | EC50 [2]: 15.2 µg/mL (≈ 36.7 µM) | EC50 [3]: 12.9 µg/mL (≈ 31.1 µM) | EC50 [4]: 10.7 µg/mL (≈ 25.7 µM) | Activity [9]: 95.69% | Activity [10]: 78.25% | Activity [11]: 92.23% | Activity [12]: 98.32%

CCOC(=O)c1c(SCc2ccccc2)nn(-c2ccccc2)c1NCCCN=C=S
Activity [5]: 65.78% | Activity [6]: 64.53% | Activity [7]: 68.59% | Activity [8]: 65.32%

CSc1nn(C)c(NCCCN=C=S)c1C#N
Activity [1]: Dose-dependent effect | EC50 [1]: 67.4 µg/mL (≈ 252 µM) | Activity [2]: Dose-dependent effect | EC50 [2]: 59.4 µg/mL (≈ 222 µM) | Activity [3]: Dose-dependent effect | EC50 [3]: 64.9 µg/mL (≈ 243 µM) | Activity [4]: Dose-dependent effect | EC50 [4]: 65.3 µg/mL (≈ 244 µM) | Activity [5]: 73.33% | Activity [6]: 74.33% | Activity [7]: 70.23% | Activity [8]: 78.69%

Cn1nc(SCc2ccccc2)c(C#N)c1NCCCN=C=S
Activity [5]: 34.48% | Activity [6]: 31.25% | Activity [7]: 42.56% | Activity [8]: 44.62%

CSc1nn(-c2ccccc2)c(NCCCN=C=S)c1C#N
Activity [5]: 56.46% | Activity [6]: 55.62% | Activity [7]: 57.69% | Activity [8]: 54.62%
